Read-outs that look alike come from different tables or passages of the source.
Assays:
[1] = tested on: washed rabbit platelets; parameters: method as in earlier work; key to effect on platelet aggregation (class symbol): A: P latelet aggregation was promoted; conditions: cited from earlier work; for % inhibition of platelet aggregation, inducer AA: AA 100 /c109/c77; for % inhibition of platelet aggregation, inducer PAF: PAF 2ng/mL; for % inhibition of platelet aggregation, inducer Col: collagen 10 /c109g/mL; for % inhibition of platelet aggregation, inducer Thr: thrombin 0.1 U/mL; for antiplatelet aggregation activity (in words): at 100 /c109g/mL
[2] = tested on: Hela: Human cervix epithelioid carcinoma; parameters: method as in earlier work; conditions: cited from earlier work
[3] = tested on: DLD (DLD-1): Human colon adenocarcinoma; parameters: method as in earlier work; conditions: cited from earlier work
[4] = tested on: Hepa: Human hepatoma; parameters: method as in earlier work; conditions: cited from earlier work
[5] = tested on: A549 cell line; experiment: SRB in vitro cytotoxicity screening; assay type: cell-based, human; conditions: isolated compounds
Experimental: (§1) The human cell lines A549 (lung cancer) and Ca Ski (cervical cancer) were cultured as monolayer in RPMI 1640 growth media whereas HCT-116 (colon cancer) and MRC5 (human normal lung fibroblasts) was cultured in McCoy’s 5A and EMEM medium, respectively. All cells were purchased from the […] (ATCC, USA). All the media were supplemented with 10 % v/v foetal bovine serum (FBS), 100 μg/mL penicillin/streptomycin, and 50 μg/mL amphotericin B. The cells were cultured in a 5 % CO2 incubator at 37 °C.
(§2) The monolayer cell culture was detached using accutase and the cell count was adjusted to 2.5 x10^5 -3.0 x10^5 cells/mL using medium containing feotal bovine serum. The cells were then plated into 96 wells with a cell density of 5000-7000 cells/well and then incubated for 24 h to allow adherence of cells to the base of well of the plates. The media was then removed and 200 μl of fresh media containing different concentration of various extracts or isolated compounds were added. Cisplatin was used as the positive control. The plates were incubated for 24, 48 and 72 h at 37 °C and 5 % CO2. The cytotoxicity of the extracts and isolated compounds were screened using the […] (SRB) assay. This assay was first described by Houghton in 2007 [8]. The incubation was halted by gentle addition of 50 μl ice cold 4 % trichloroacetic acid (TCA) to each well and the plates were incubated at 4 °C for 1 h. Then, the supernatant was discarded and the plates were washed with distilled water for 5 times and then air dried. SRB dye, 50 μl, (0.4 % w/v) was added into each well and the treated cells and control were incubated at room temperature for 30 min. The unbound dye was removed by rapid washing four times with 1 % acetic acid. The plates were then air dried and 100 μl of tris base (10 mM unbuffered, pH 10.5) was added and the plates were shaken at 500 rpm for 5 min to solublize the bound SRB stain. The plates were then read with an ELISA reader (Synergy H1 Hybrid) at an absorbance of 492 nm.

[6] = tested on: MRC5 (human normal lung fibroblasts); experiment: SRB in vitro cytotoxicity screening (toxicity to normal cells); assay type: cell-based; conditions: isolated compounds; for IC50: 72 h, read-out: IC50 in μg/ml (μM) (MRC5) 72 h (converted)
Experimental: as §1, §2

[7] = Homo sapiens, A549, 48 h, value in brackets, read-out: IC50 in μg/ml (μM) (A549) 48 h (converted)
[8] = Homo sapiens, A549, 48 h, read-out: IC50 in μg/ml (μM) (A549) 48 h (converted)
[9] = Homo sapiens, A549, 72 h, value in brackets, read-out: IC50 in μg/ml (μM) (A549) 72 h (converted)
[10] = Homo sapiens, A549, 72 h, read-out: IC50 in μg/ml (μM) (A549) 72 h (converted)
[11] = Homo sapiens, MRC5, value in brackets

Molecule	% inhibition of platelet aggregation, inducer AA ([1]; Conc. 50 /c109g/mL)	% inhibition of platelet aggregation, inducer Col ([1]; Conc. 50 /c109g/mL)	antiplatelet aggregation activity (in words) [1]	ED50 DLD [3]	ED50 Hepa [4]	IC50 [5, 7]	IC50 [5, 8]	IC50 [5, 9]	IC50 [5, 10]	IC50 [6, 11]	IC50 ([6]; Homo sapiens, MRC5)	other results
bergapten [Compound 9]	63.5%	59.0%	no obvious activity	- (“-“: ED50 /c6220 /c109g/mL)	- (“-“: ED50 /c6220 /c109g/mL)	–	–	–	–	–	–	% inhibition of platelet aggregation, inducer PAF ([1]; Conc. 50 /c109g/mL): 4.5%; % inhibition of platelet aggregation, inducer Thr ([1]; Conc. 50 /c109g/mL): 7.5%; ED50 Hela [2]: - (“-“: ED50 /c6220 /c109g/mL)
CC(=O)CCCCCCc1ccc2c(c1)OCO2 [Moskachan D, moskachan D]	–	–	–	–	–	312 µM	77.5 ± 3 µg/mL	74.6 µM	18.5 ± 0.65 µg/mL	366 µM	90.8 ± 0.8 µg/mL	–
CC(=O)CCCCc1ccc2c(c1)OCO2 [Moskachan B, moskachan B]	–	–	–	–	–	> 454 µM	> 100 µg/mL	> 454 µM	> 100 µg/mL	> 454 µM	> 100 µg/mL	–
COc1cc2c(c(O)c1OC)c(=O)c1ccccc1n2C [Compound 2, arborinine]	51.6%	39.1%	no obvious activity	- (“-“: ED50 /c6220 /c109g/mL)	- (“-“: ED50 /c6220 /c109g/mL)	–	–	–	–	–	–	% inhibition of platelet aggregation, inducer PAF ([1]; Conc. 50 /c109g/mL): 4.8%; % inhibition of platelet aggregation, inducer Thr ([1]; Conc. 50 /c109g/mL): 1.1%
1-hydroxy-N-methylacridone [Compound 1]	–	–	no obvious activity	–	- (“-“: ED50 /c6220 /c109g/mL)	–	–	–	–	–	–	% inhibition of platelet aggregation, inducer AA ([1]; Conc. 20 /c109g/mL): 17.8%; % inhibition of platelet aggregation, inducer PAF ([1]; Conc. 20 /c109g/mL): 3.4%; % inhibition of platelet aggregation, inducer Col ([1]; Conc. 20 /c109g/mL): 3.7%; % inhibition of platelet aggregation, inducer Thr ([1]; Conc. 20 /c109g/mL): 4.3%; effect on platelet aggregation (class symbol) ([1]; Conc. 50 /c109g/mL, inducer column cannot be told): A
C=CC(=C)CCCC(C)CCCC(C)CCCC(C)C (stereo not shown) [Neophytadiene, neophytadiene]	–	–	–	–	–	249 µM	69.2 ± 1.06 µg/mL	245 µM	68 ± 2.43 µg/mL	278 µM	77.4 ± 0.98 µg/mL	–
COc1c2ccoc2c(OC)c2oc(=O)ccc12 [Compound 11, isopimpinellin]	–	–	no obvious activity	–	–	–	–	–	–	–	–	% inhibition of platelet aggregation, inducer AA ([1]; Conc. 100 /c109g/mL): 30.4%; % inhibition of platelet aggregation, inducer PAF ([1]; Conc. 100 /c109g/mL): 4.5%; % inhibition of platelet aggregation, inducer Col ([1]; Conc. 100 /c109g/mL): 8.0%; % inhibition of platelet aggregation, inducer Thr ([1]; Conc. 100 /c109g/mL): 3.9%
COc1c2ccoc2cc2oc(=O)ccc12 [Bergapten, bergapten]	–	–	–	–	–	> 463 µM	> 100 µg/mL	202 µM	43.5 ± 1.81 µg/mL	> 463 µM	> 100 µg/mL	–
graveolinine [Compound 16]	100.0%	81.2%	–	- (“-“: ED50 /c6220 /c109g/mL)	- (“-“: ED50 /c6220 /c109g/mL)	–	–	–	–	–	–	% inhibition of platelet aggregation, inducer AA ([1]; Conc. 0.2 /c109g/mL): 6.8%; % inhibition of platelet aggregation, inducer AA ([1]; Conc. 0.5 /c109g/mL): 14.9%; % inhibition of platelet aggregation, inducer Col ([1]; Conc. 0.5 /c109g/mL): 5.8%; % inhibition of platelet aggregation, inducer AA ([1]; Conc. 1 /c109g/mL): 26.9%; % inhibition of platelet aggregation, inducer Col ([1]; Conc. 1 /c109g/mL): 19.2%; % inhibition of platelet aggregation, inducer AA ([1]; Conc. 2 /c109g/mL): 38.4%; % inhibition of platelet aggregation, inducer Col ([1]; Conc. 2 /c109g/mL): 25.4%; % inhibition of platelet aggregation, inducer AA ([1]; Conc. 5 /c109g/mL): 71.2%; % inhibition of platelet aggregation, inducer Col ([1]; Conc. 5 /c109g/mL): 33.3%; % inhibition of platelet aggregation, inducer AA ([1]; Conc. 10 /c109g/mL): 73.1%; % inhibition of platelet aggregation, inducer Col ([1]; Conc. 10 /c109g/mL): 49.5%; % inhibition of platelet aggregation, inducer AA ([1]; Conc. 20 /c109g/mL): 77.4%; % inhibition of platelet aggregation, inducer Col ([1]; Conc. 20 /c109g/mL): 72.6%; % inhibition of platelet aggregation, inducer AA ([1]; Conc. 100 /c109g/mL): 100.0%; % inhibition of platelet aggregation, inducer PAF ([1]; Conc. 100 /c109g/mL): 34.6%; % inhibition of platelet aggregation, inducer Col ([1]; Conc. 100 /c109g/mL): 100.0%; % inhibition of platelet aggregation, inducer Thr ([1]; Conc. 100 /c109g/mL): 9.0%; ED50 Hela [2]: - (“-“: ED50 /c6220 /c109g/mL)
Cn1c(-c2ccc3c(c2)OCO3)cc(=O)c2ccccc21 [Compound 17, graveoline]	9.5%	5.2%	no obvious activity	- (“-“: ED50 /c6220 /c109g/mL)	- (“-“: ED50 /c6220 /c109g/mL)	–	–	–	–	–	–	% inhibition of platelet aggregation, inducer PAF ([1]; Conc. 50 /c109g/mL): 6.2%; % inhibition of platelet aggregation, inducer Thr ([1]; Conc. 50 /c109g/mL): 1.1%
COc1cc2nc3occc3c(OC)c2cc1OC [Kokusaginine, kokusaginine]	–	–	–	–	–	–	–	–	–	289 µM	74.8 ± 0.82 µg/mL	IC50 ([5]; Homo sapiens, A549, 48 h, 48 h, value in brackets, read-out: IC50 in μg/ml (μM) (A549) 48 h (converted)): 338 µM; IC50 ([5]; Homo sapiens, A549, 48 h, 48 h, read-out: IC50 in μg/ml (μM) (A549) 48 h (converted)): 87.4 ± 7.08 µg/mL; IC50 ([5]; Homo sapiens, A549, 72 h, 72 h, value in brackets, read-out: IC50 in μg/ml (μM) (A549) 72 h (converted)): > 386 µM; IC50 ([5]; Homo sapiens, A549, 72 h, 72 h, read-out: IC50 in μg/ml (μM) (A549) 72 h (converted)): > 100 µg/mL
C=CC(C)(C)c1cc2cc3c(cc2oc1=O)OC(C(C)(C)OC(C)=O)C3 (stereo not shown) [Compound 14, rutamarin]	7.6%	10.5%	no obvious activity	–	- (“-“: ED50 /c6220 /c109g/mL)	–	–	–	–	–	–	% inhibition of platelet aggregation, inducer PAF ([1]; Conc. 50 /c109g/mL): 4.5%; % inhibition of platelet aggregation, inducer Thr ([1]; Conc. 50 /c109g/mL): 3.0%
Cn1c(-c2ccc3c(c2)OCO3)cc(=O)c2ccccc21 [Graveoline, graveoline]	–	–	–	–	–	274 µM	76.3 ± 2.08 µg/mL	160 µM	44.6 ± 0.47 µg/mL	250 µM	69.7 ± 2.5 µg/mL	–
N.N.[Cl][Pt][Cl] [Cisplatin, reference compound]	–	–	–	–	–	–	–	–	–	–	–	IC50 in μg/ml (μM) (A549) 72 h ([5]; 72 h): 24.5 ± 1.8 µg/mL; IC50 ([5]; 72 h, value in brackets, read-out: IC50 in μg/ml (μM) (A549) 72 h (converted)): 81.7 µM; IC50 in μg/ml (μM) (MRC5) 72 h [6]: > 100 µg/mL; IC50 ([6]; value in brackets): > 333 µM
COc1cc2nc3occc3c(OC)c2cc1OC [Compound 6, kokusaginine]	–	–	no obvious activity	- (“-“: ED50 /c6220 /c109g/mL)	- (“-“: ED50 /c6220 /c109g/mL)	–	–	–	–	–	–	% inhibition of platelet aggregation, inducer AA ([1]; Conc. 100 /c109g/mL): 42.2%; % inhibition of platelet aggregation, inducer PAF ([1]; Conc. 100 /c109g/mL): 3.5%; % inhibition of platelet aggregation, inducer Col ([1]; Conc. 100 /c109g/mL): 53.1%; % inhibition of platelet aggregation, inducer Thr ([1]; Conc. 100 /c109g/mL): 0.9%
